Results taken from patent publication US20190111137A1, “METHODS FOR ANTAGONISTS OF A NON-SELECTIVE CATION CHANNEL IN NEURAL CELLS” (University of Maryland, Baltimore, priority 2007, published 2019).
“Also recorded” adds a separate entry of the source. Where two headings read alike, the source gives them in different places. Blank lines part the entries; values can stand above or below the compound they belong to.

Key:
[1] = system: temporary MCAO model; conditions: cited from earlier work
[2] = system: permanent middle cerebral artery occlusion (MCAO) model; conditions: cited from earlier work
[3] = target: T1, NCCa-ATP channel (Rattus norvegicus, UniProt Q09429+Q9ESQ5); conditions: cited from earlier work; for channel opening in the presence of ATP: K+ channel openers
T1 construct: endogenous in cells; host or cells: freshly isolated native reactive astrocytes from the hypoxic gliotic capsule

[4] = system: TRPM4 channel; conditions: cited from earlier work
[5] = target: T1, NCCa-ATP channel; test: Patch clamp of NCCa-ATP channel in freshly isolated native reactive astrocytes; format: cell-based; conditions: for EC50: read-out: [ATP]1 EC50
Procedure: (§1) PATCH CLAMP. […] In general, recordings are carried out using a Cs^+ rich solution, to preclude recording activity from any K^+ channel including KATP channel.

[6] = target: T2, NCCa-ATP channel (Mus musculus, UniProt B2RUS7+Q7TN37); test: Patch clamp of bEnd.3 cells exposed to TNFα, ATP depleted with Na azide plus 2-DG; format: cell-based, murine; conditions: TNFα-treated bEnd.3 cells; for block of single channel activity (inside-out patch): Cs+ as the only permeant cation
T2 construct: exposure to TNFα causes expression of a new channel that is not present before exposure to TNFα; host or cells: bEnd.3 cells exposed to TNFα
Procedure: (§2) (iii) Pharmacological block of SUR1 and TRPM4/patch clamp.
(§3) Patch clamp was performed using a nystatin-perforated patch technique to maintain the metabolic integrity of the cells.
(§4) Single channel recordings were performed using inside-out patches, with Cs^+ as the only permeant cation.
(§5) Apart from direct application of PIP2 (FIG. 24A), PIP2 levels can be augmented by inhibiting spontaneously active PLC.
as §1

[7] = system: rat model of contusion SCI; test: Rat model of unilateral cervical spinal cord injury (SCI); format: in vivo; conditions: for neurobehavioral function (inclined plane, rearing) / progressive hemorrhagic necrosis / progressive hemorrhage: post-SCI
[8] = target: T3, human TRP3 (Homo sapiens, UniProt Q13507); conditions: high concentrations; cited from earlier work
T3 construct: expressed in transfected cells
T3 sequence (Q13507 1-848 isoform Q13507-3): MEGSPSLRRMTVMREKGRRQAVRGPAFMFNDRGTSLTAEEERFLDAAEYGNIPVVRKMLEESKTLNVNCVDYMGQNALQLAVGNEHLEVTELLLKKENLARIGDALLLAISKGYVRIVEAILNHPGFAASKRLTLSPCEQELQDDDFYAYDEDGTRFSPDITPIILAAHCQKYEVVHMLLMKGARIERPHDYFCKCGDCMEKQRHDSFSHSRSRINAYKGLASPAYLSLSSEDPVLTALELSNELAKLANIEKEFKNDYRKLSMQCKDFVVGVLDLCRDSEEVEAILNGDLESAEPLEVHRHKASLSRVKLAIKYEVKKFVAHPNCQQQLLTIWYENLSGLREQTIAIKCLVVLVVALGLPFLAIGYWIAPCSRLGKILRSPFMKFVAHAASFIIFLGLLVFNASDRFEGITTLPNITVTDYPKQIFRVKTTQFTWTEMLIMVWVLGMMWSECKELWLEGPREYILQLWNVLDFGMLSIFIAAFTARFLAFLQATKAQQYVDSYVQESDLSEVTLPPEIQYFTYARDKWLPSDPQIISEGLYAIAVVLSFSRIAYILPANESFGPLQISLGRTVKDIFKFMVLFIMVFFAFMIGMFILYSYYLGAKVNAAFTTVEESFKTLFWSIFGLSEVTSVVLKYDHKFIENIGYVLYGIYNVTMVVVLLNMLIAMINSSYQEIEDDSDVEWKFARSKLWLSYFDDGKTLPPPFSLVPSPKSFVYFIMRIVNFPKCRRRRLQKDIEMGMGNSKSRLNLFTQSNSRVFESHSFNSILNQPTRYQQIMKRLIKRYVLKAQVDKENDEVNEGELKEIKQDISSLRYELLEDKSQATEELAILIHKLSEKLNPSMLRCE

[9] = target: receptor-mediated Ca^2+ entry; conditions: cited from earlier work
[10] = system: endothelial cells of the BBB; conditions: cited from earlier work
[11] = system: NCCa-ATP channel; test: Patch clamp of bEnd.3 cells exposed to TNFα, ATP depleted with Na azide plus 2-DG; format: cell-based, murine
Procedure: as §2, §3, §4, §5, §1

[12] = system: global cerebral ischemia in gerbils; conditions: in vivo; cited from earlier work
[13] = system: reactive astrocytes; conditions: without ATP depletion; cited from earlier work
[14] = target: T4, TRPM2 (Homo sapiens, UniProt O94759); conditions: activated by extracellular H2O2; cited from earlier work
T4 construct: host or cells: Chinese hamster ovary cells

[15] = system: isolated retina of chick embryo; conditions: cited from earlier work
[16] = system: rodent model of transient focal ischemia; conditions: pre- or post-ischemic administration; cited from earlier work
[17] = system: rat model of contusion SCI; conditions: as reported (Simard et al., 2007); cited from earlier work
[18] = system: rat model of ischemic stroke; conditions: given 30 min after initiation of permanent MCAO; cited from earlier work
[19] = after 6 h of vascular occlusion
[20] = Membrane Preparation derived from freshly isolated native reactive astrocytes

T1 sequence (Q09429 whole entry): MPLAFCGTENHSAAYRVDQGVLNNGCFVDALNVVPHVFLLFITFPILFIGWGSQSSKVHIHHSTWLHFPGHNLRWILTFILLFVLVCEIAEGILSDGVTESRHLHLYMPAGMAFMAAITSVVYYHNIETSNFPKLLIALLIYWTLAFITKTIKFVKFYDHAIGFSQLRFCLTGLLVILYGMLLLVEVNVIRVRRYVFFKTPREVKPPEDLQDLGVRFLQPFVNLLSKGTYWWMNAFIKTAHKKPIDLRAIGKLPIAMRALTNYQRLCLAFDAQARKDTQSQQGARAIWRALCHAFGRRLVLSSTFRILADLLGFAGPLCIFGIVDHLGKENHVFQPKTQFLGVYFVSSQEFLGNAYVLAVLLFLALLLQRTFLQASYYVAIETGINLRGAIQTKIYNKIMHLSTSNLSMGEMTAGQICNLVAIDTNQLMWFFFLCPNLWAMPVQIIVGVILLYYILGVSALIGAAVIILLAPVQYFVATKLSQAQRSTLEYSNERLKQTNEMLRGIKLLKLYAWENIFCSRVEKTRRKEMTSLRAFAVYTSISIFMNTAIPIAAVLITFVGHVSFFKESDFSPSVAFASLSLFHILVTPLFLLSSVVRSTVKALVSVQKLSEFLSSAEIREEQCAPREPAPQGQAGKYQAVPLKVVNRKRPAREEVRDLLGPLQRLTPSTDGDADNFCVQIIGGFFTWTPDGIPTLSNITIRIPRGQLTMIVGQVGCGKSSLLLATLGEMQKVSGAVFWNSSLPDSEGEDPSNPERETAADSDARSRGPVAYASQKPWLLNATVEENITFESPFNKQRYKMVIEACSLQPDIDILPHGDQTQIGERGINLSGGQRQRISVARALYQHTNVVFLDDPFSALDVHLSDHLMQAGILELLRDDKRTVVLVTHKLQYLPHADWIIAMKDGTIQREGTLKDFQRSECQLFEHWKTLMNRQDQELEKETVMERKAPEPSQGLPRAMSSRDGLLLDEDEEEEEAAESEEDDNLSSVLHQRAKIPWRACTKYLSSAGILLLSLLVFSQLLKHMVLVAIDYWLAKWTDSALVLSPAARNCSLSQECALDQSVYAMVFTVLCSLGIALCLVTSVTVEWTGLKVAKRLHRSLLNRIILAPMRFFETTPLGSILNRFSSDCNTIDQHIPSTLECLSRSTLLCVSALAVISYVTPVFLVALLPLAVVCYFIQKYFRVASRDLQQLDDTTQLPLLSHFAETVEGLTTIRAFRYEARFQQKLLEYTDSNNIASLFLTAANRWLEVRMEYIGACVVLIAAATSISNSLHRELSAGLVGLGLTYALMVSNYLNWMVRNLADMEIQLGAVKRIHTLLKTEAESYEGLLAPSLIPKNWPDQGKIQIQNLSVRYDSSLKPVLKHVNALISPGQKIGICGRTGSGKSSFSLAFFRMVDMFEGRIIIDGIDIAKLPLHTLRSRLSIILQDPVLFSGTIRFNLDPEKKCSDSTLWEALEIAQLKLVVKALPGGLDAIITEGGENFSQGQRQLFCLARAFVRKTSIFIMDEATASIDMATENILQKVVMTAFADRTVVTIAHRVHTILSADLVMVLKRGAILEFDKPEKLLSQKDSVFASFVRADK
T1 sequence (Q9ESQ5 whole entry): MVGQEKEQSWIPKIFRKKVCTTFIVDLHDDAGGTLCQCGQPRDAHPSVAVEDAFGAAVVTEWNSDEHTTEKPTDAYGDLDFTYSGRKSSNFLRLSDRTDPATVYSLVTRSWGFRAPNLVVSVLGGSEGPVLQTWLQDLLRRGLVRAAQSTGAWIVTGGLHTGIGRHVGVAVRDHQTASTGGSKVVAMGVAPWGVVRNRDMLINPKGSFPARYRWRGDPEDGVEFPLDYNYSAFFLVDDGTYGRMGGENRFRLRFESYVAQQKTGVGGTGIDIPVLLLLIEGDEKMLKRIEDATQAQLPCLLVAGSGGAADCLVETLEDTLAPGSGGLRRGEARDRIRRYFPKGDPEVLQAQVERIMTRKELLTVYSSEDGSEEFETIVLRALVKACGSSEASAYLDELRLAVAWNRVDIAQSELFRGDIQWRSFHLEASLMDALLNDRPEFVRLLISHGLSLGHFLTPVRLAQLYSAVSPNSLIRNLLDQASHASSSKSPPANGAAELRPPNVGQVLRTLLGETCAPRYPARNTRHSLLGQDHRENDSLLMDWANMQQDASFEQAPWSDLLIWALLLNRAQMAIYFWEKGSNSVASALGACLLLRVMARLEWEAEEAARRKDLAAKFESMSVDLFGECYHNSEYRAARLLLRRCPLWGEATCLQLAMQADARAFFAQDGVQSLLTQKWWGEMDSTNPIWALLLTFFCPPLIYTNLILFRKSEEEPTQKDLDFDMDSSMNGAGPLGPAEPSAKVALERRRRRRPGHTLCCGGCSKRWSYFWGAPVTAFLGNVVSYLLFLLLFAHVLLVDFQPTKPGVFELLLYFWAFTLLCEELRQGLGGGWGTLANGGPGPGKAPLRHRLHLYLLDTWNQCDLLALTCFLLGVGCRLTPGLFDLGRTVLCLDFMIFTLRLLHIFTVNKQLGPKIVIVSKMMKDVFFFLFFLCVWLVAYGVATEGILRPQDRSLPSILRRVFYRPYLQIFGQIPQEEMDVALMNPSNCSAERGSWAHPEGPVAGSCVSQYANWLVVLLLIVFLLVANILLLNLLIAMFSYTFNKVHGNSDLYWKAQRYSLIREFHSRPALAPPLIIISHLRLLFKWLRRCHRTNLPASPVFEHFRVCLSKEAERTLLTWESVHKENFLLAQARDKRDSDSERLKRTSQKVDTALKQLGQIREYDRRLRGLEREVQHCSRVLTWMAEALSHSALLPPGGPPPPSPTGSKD
T4 sequence (O94759 whole entry): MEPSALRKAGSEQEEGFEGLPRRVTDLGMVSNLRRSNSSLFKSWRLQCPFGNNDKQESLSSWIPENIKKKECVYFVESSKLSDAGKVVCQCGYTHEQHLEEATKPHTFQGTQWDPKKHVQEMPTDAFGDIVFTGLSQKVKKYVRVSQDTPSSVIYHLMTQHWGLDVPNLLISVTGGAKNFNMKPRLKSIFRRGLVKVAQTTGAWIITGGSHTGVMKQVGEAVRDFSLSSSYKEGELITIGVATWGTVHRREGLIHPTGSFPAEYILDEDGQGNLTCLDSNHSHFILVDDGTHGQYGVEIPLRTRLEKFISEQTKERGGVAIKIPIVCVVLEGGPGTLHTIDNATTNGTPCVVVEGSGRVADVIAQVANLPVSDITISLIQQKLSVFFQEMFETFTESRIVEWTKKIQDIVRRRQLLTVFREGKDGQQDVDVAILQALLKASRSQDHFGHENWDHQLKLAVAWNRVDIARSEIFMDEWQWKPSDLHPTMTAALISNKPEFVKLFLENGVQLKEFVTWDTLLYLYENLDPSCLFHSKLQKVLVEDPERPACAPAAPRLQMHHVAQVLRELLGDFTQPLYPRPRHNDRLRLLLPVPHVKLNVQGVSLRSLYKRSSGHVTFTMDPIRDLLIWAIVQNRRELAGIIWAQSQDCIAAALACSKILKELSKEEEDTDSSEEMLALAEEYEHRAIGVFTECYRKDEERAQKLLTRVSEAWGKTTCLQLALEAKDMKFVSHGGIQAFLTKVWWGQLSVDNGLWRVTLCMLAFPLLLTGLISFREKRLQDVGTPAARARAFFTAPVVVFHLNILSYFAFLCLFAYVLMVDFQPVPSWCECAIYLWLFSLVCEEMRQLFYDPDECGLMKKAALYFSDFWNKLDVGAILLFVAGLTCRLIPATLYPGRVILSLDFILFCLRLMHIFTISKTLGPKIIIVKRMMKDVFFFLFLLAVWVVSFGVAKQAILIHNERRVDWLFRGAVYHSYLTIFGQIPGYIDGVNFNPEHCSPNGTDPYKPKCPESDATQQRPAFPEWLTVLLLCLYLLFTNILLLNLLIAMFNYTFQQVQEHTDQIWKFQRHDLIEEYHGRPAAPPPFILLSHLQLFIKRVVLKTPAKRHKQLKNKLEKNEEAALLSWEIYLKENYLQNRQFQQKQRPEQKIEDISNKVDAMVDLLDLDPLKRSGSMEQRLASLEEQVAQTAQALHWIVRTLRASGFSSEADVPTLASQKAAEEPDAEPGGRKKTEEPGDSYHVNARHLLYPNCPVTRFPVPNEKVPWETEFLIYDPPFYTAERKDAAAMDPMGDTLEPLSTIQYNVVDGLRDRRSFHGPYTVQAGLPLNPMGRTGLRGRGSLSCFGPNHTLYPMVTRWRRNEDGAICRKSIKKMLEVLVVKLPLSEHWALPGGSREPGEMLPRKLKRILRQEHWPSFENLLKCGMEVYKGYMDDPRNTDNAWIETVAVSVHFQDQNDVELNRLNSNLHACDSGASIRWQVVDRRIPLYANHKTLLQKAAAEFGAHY

Compound: COc1cc2c(cc1OC)C(C(C(=O)N(CCc1ccc(OC)c(OC)c1OC)CCc1ccc(OC)c(OC)c1OC)c1ccccc1)=NCC2 (racemic) [pinokalant, (R,S)-(3,4-dihydro-6,7-dimethoxy-isoquinoline-1-yl)-2-phenyl-N,N-di[2-(2,3,4-trimethoxyphenyl)ethyl]-acetamide]
DWI-derived infarct volume ([1]; 4 h after MCAO): significantly smaller
neurological scores ([1]; 24 h): significantly better
TTC-derived infarct volume ([1]; postmortem): significantly attenuated
size of the ischemic core ([1]; rat, in vivo): significantly smaller
blood flow [2, 19]: significantly higher
volume of ATP-depleted and morphologically injured tissue (infarct core), smaller [2, 19]: 60-70%
decrease of ADC lesion volume ([2]; during the initial 6 h of vascular occlusion): approximately 20%
size of ischemic penumbra ([2]; volume of severely acidic tissue): does not reduce

Compound: Nc1ncnc2c1ncn2[C@@H]1O[C@H](COP(=O)(O)OP(=O)(O)O)[C@@H](O)[C@H]1O [ADP]
ADP, AMP block ([3]; SUR1-regulated NCCa-ATP): no
effect of ADP or AMP on channel opening [3]: unaffected
ADP, AMP block [4]: yes
ADP AMP channel effect [5, 20]: No channel
ADP AMP channel effect ([5]; Reactive Astrocytes): No channel

Compound: Nc1ncnc2c1ncn2[C@@H]1O[C@H](COP(=O)(O)O)[C@@H](O)[C@H]1O [AMP]
ADP, AMP block ([3]; SUR1-regulated NCCa-ATP): no
effect of ADP or AMP on channel opening [3]: unaffected
ADP, AMP block [4]: yes
ADP AMP channel effect [5, 20]: No channel
ADP AMP channel effect ([5]; Reactive Astrocytes): No channel

block of single channel activity (inside-out patch) [6]: reversibly blocked
EC50 [5, 20]: 790 nM
EC50 ([5]; Reactive Astrocytes): 790 nM
Compound: Nc1ncnc2c1ncn2[C@@H]1O[C@H](COP(=O)(O)OP(=O)(O)OP(=O)(O)O)[C@@H](O)[C@H]1O [ATP]
EC50 ([3]; SUR1-regulated NCCa-ATP, read-out: ATP block (EC50)): 800 nM
EC50 ([3]; read-out: Channel opening blocked by ATP (EC50)): 790 nM
EC50 ([4]; read-out: ATP block (EC50)): 130 to 1700 nM

Activation [Ca^2+] [5, 20]: <1.0 µM
Activation [Ca^2+] ([5]; Reactive Astrocytes): <1.0 µM
Compound: [Ca+2] [Ca^2+]
EC50 ([3]; SUR1-regulated NCCa-ATP, read-out: Ca^2+ activation (EC50)): 120 to 1500 nM
EC50 ([4]; read-out: Ca^2+ activation (EC50)): 1300 nM

Compound: S=C(S)N1CCCC1 [PDTC, pyrrolidine dithiocarbamate]
TRPM4 expression in cord (immunolabeling) ([7]; 24 h post-SCI): significantly decreased; also recorded: reduces TRPM4 expression
neurobehavioral function (inclined plane, rearing) [7]: improved functional outcome

Compound: COc1ccc(CCCOC(Cn2ccnc2)c2ccc(OC)cc2)cc1.Cl (stereo not drawn) [SKF 96365, 1-(beta[3-(4-methoxy-phenyl)propoxy]-4-methoxyphenethyl)-1H-imidazole hydrochloride]
increased Ca^2+ entry in TRP3-expressing cells [8]: blocked
IC50 [9]: ~10000 nM
expression of the tight junction protein occludin ([10]; after hypoxic/aglycemic stress): increased
hypoxia-induced BBB disruption ([10]; normoglycemia): protective

Compound: COc1ccc2c(c1)CC[C@@H]1[C@@H]2CC[C@]2(C)[C@@H](NCCCCCCN3C(=O)C=CC3=O)CC[C@@H]12 [U73122]
channel activation by inhibiting phospholipase C (whole cell) ([11]; TNFα-stimulated bEnd.3 cells): activated an ohmic current; also recorded: channel activation
channel activation by inhibiting phospholipase C (whole cell) ([11]; control bEnd.3 cells): without effect

Compound: COc1cc(CNC(=O)CCCC/C=C/C(C)C)ccc1O [capsaicin]
electroencephalographic changes, hyperlocomotion and memory impairment induced by global ischemia [12]: antagonize
survival of pyramidal cells in the CA1 subfield of the hippocampus [12]: progressive survival

Compound: Oc1cc2c(cc1O)CN(C(=S)NCCc1ccc(Cl)cc1)CCC2 [capsazepine]
effect on rimonabant-induced and capsaicin-induced neuroprotective effects [12]: reversed

Compound: CC1(C)Oc2ccc(C#N)cc2C(N2CCCC2=O)C1O (centres unmarked) [cromakalin]
channel opening in the presence of ATP [3]: not

Compound: CC1=NS(=O)(=O)c2cc(Cl)ccc2N1 [diazoxide]
channel opening in the presence of ATP [3]: increased
bleb formation [13]: reproduced

block of current activated by ATP depletion (whole cell) ([6]; 100 μM flufenamic acid): blocked
block of single channel activity (inside-out patch) [6]: blocked
block of current activated by ATP depletion (whole cell) ([6]; listed as FFA): blocked
Compound: O=C(O)c1ccccc1Nc1cccc(C(F)(F)F)c1 [flufenamic acid]
inhibition of TRPM2 [14]: inhibits
block of current activated by ATP depletion (whole cell) [6]: blocked; also recorded: also blocks this current
amount of blood in cord homogenates ([7]; 24-hr post-SCI, post-treatment): significant decrease in blood
hemorrhage in cords (surface and sections) ([7]; 24 h post-SCI): less hemorrhage
neurobehavioral function (inclined plane, rearing) [7]: improves neurological function; also recorded: improved
progressive hemorrhagic necrosis / progressive hemorrhage [7]: reduces progressive hemorrhagic necrosis; also recorded: blocked
neurobehavioral function (inclined plane, rearing) ([7]; listed as FFA): improve neurobehavioral function; also recorded: significantly better performance than controls
progressive hemorrhagic necrosis / progressive hemorrhage ([7]; listed as FFA): prevented
capillary integrity (vimentin immunolabeling) ([7]; region of injury post-SCI, listed as FFA): elongated capillaries; also recorded: elongated and more intact
protection of the retina against ischemic or excitotoxic insult [15]: protected

Compound: Cc1ccc(Cl)c(Nc2ccccc2C(=O)O)c1Cl [meclofenamic acid]
protection of the retina against ischemic or excitotoxic insult [15]: protected

Compound: Cc1cccc(Nc2ccccc2C(=O)O)c1C [mefenamic acid]
neuroprotection (necrosis in cortex and subcortical structures) [16]: no neuroprotection
protection of the retina against ischemic or excitotoxic insult [15]: protected

Compound: CC(N/C(=N\C#N)Nc1ccncc1)C(C)(C)C (centres unmarked) [pinacidil]
channel opening in the presence of ATP [3]: not

Compound: CCOc1cc(CC(=O)N[C@@H](CC(C)C)c2ccccc2N2CCCCC2)ccc1C(=O)O [repaglinide]
neurological function [17]: improves neurological function
progressive hemorrhagic necrosis [17]: reduces progressive hemorrhagic necrosis

Compound: Cc1c(C(=O)NN2CCCCC2)nn(-c2ccc(Cl)cc2Cl)c1-c1ccc(Cl)cc1 [rimonabant]
reduction of infarct volume [18]: ~40%
electroencephalographic changes, hyperlocomotion and memory impairment induced by global ischemia [12]: antagonize
survival of pyramidal cells in the CA1 subfield of the hippocampus [12]: progressive survival

Compound: CCCCNC(=O)NS(=O)(=O)c1ccc(C)cc1 [tolbutamide]
EC50 ([3]; pH 7.4, read-out: block of NCCa-ATP channel opening (EC50)): 16100 nM

PIP2 activation ([5]; SUR1-regulated NCCa-ATP, unpublished observations): yes*
Compound: PIP2
PIP2 activation [4]: yes
channel activity after addition of PIP2 ([5]; inside-out patch, high concentration of ATP (10 mM) on the cytoplasmic side): robust channel activation; also recorded: release of inhibition
